Results from PubChem BioAssay AID328 (DTP/NCI, 2004).
Values joined by “and” are separate entries in the source; they are usually repeats but may differ in a detail not shown here. Equal values may be shown once. Toxic doses and inconclusive results are not listed. How the source made its calls: active means survival T/C of 150% or more; inactive means T/C below 125% in these data.

Tested on: BDF1 mice, P388 leukemia ip, median survival T/C
Assay: NCI In Vivo Anticancer Drug Screen. Data for tumor model P388 Leukemia (intraperitoneal) in B6D2F1 (BDF1) mice
Details: endpoint: median survival time, higher = longer survival
Procedure, shortened: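 Transplantable tumour in mice; compound vs vehicle dosing; survival scored; ratio of treated to control reported.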

[1] = dose: 25.0 mg/kg/injection, schedule: Q01DX009 (ip), vehicle: saline with Tween-80
[2] = dose: 50.0 mg/kg/injection, schedule: Q01DX009 (ip), vehicle: saline with Tween-80
[3] = dose: 100.0 mg/kg/injection, schedule: Q01DX009 (ip), vehicle: saline with Tween-80
[4] = dose: 100.0 mg/kg/injection, schedule: Q04DX003 (ip), vehicle: Klucel (hydroxypropylcellulose) (HPC)
[5] = dose: 200.0 mg/kg/injection, schedule: Q04DX003 (ip), vehicle: Klucel (hydroxypropylcellulose) (HPC)
[6] = dose: 400.0 mg/kg/injection, schedule: Q04DX003 (ip), vehicle: Klucel (hydroxypropylcellulose) (HPC)
[7] = dose: 50.0 mg/kg/injection, schedule: Q04DX003 (ip), vehicle: saline with Tween-80
[8] = dose: 100.0 mg/kg/injection, schedule: Q04DX003 (ip), vehicle: saline with Tween-80
[9] = dose: 200.0 mg/kg/injection, schedule: Q01DX009 (ip), vehicle: saline with Tween-80
[10] = dose: 200.0 mg/kg/injection, schedule: Q04DX003 (ip), vehicle: other
[11] = dose: 400.0 mg/kg/injection, schedule: Q04DX003 (ip), vehicle: other

Measured: T/C

CC(=O)OC1(C)CC(C)C(=O)C(C(O)CC2CC(=O)NC(=O)C2)C1 (stereo not drawn)
inactive: dose: 0.25 mg/kg/injection, schedule: Q01DX010 (ip), vehicle: water 90 % of control | dose: 2.16 mg/kg/injection, schedule: Q01DX001 (sc), vehicle: saline 100 % of control | dose: 3.24 mg/kg/injection, schedule: Q01DX001 (ip), vehicle: saline 110 % of control | dose: 3.6 mg/kg/injection, schedule: Q01DX001 (sc), vehicle: saline 123 % of control | dose: 5.4 mg/kg/injection, schedule: Q01DX001 (ip), vehicle: saline 116 % of control | dose: 5.4 mg/kg/injection, schedule: Q04DX003 (ip), vehicle: saline 107 % of control | dose: 6.0 mg/kg/injection, schedule: Q01DX001 (sc), vehicle: saline 118 % of control | dose: 9.0 mg/kg/injection, schedule: Q01DX001 (ip), vehicle: saline 117 % of control | dose: 15.0 mg/kg/injection, schedule: Q01DX001 (ip), vehicle: saline 123 % of control | dose: 778.0 micrograms/kg/injection, schedule: Q04DX003 (sc), vehicle: saline 109 % of control | dose: 1300.0 micrograms/kg/injection, schedule: Q04DX003 (sc), vehicle: saline 116 % of control | dose: 2160.0 micrograms/kg/injection, schedule: Q04DX003 (sc), vehicle: saline 107 % of control | dose: 3600.0 micrograms/kg/injection, schedule: Q04DX003 (sc), vehicle: saline 98 % of control

CCOC(=O)[C@]1(Br)CC[C@@]1(Br)C(=O)OCC
inactive: [1] 112 % of control | [2] 113 % of control and 114 % of control | [3] 117 % of control

COC(=O)c1cc(Cl)ccc1OCC(=O)Nc1ccc([N+](=O)[O-])cc1
inactive: [4] 95 % of control and 100 % of control | [5] 104 % of control | [6] 87 % of control and 104 % of control

CN(C)CC(=O)N/N=C\c1ccc([N+](=O)[O-])s1
inactive: dose: 25.0 mg/kg/injection, schedule: Q04DX003 (ip), vehicle: saline 87 % of control | dose: 50.0 mg/kg/injection, schedule: Q04DX003 (ip), vehicle: saline 87 % of control | dose: 100.0 mg/kg/injection, schedule: Q04DX003 (ip), vehicle: saline 91 % of control

CNC(=O)NC1C(O)C(CO)OC(OC)C1O (stereo not drawn)
inactive: dose: 100.0 mg/kg/injection, schedule: Q01DX001 (ip), vehicle: saline 118 % of control | dose: 200.0 mg/kg/injection, schedule: Q01DX001 (ip), vehicle: saline 100 % of control | dose: 400.0 mg/kg/injection, schedule: Q01DX001 (ip), vehicle: saline 104 % of control

Cc1cc(C)cc(C(O)(c2cc(C)cc(C)c2)c2cc(C)cc(C)c2)c1
inactive: [4] 100 % of control | [5] 90 % of control | [6] 110 % of control

COC(=O)NC1=C(N2CC2)C(=O)C(NC(=O)OC)=C(N2CC2)C1=O
active: dose: 0.37 mg/kg/injection, schedule: Q01DX009 (ip), vehicle: saline 242 % of control and 222 % of control | dose: 0.75 mg/kg/injection, schedule: Q01DX009 (ip), vehicle: saline 252 % of control and 270 % of control

Nc1n[nH]c(=S)n1-c1ccc(Cl)cc1
inactive: [4] 100 % of control | [5] 104 % of control | [6] 100 % of control

O=C(O)c1c[nH]n2c(=S)ncnc12
inactive: [2] 93 % of control | [7] 104 % of control | [3] 104 % of control | [8] 91 % of control | [9] 100 % of control | dose: 200.0 mg/kg/injection, schedule: Q04DX003 (ip), vehicle: saline with Tween-80 87 % of control | dose: 400.0 mg/kg/injection, schedule: Q01DX009 (ip), vehicle: saline with Tween-80 93 % of control | dose: 400.0 mg/kg/injection, schedule: Q04DX003 (ip), vehicle: saline with Tween-80 95 % of control

CN1c2ccccc2C(=O)NC1c1ccc([N+](=O)[O-])s1 (stereo not drawn)
inactive: [2] 95 % of control | [3] 100 % of control | [9] 91 % of control

CC1(c2cccc([N+](=O)[O-])c2)OCCO1
inactive: dose: 100.0 mg/kg/injection, schedule: Q01DX009 (ip), vehicle: other 109 % of control | dose: 100.0 mg/kg/injection, schedule: Q04DX003 (ip), vehicle: other 100 % of control | dose: 200.0 mg/kg/injection, schedule: Q01DX009 (ip), vehicle: other 100 % of control | [10] 95 % of control | dose: 400.0 mg/kg/injection, schedule: Q01DX009 (ip), vehicle: other 100 % of control | [11] 91 % of control

NOCc1ccsn1
inactive: [10] 95 % of control | [11] 90 % of control

O=C(/C=C/c1ccc(OCc2ccccc2)cc1)c1ccccc1Br
inactive: [2] 96 % of control | [3] 107 % of control | [9] 105 % of control

C/C=C1/CC(C)C(C)(O)C(=O)OCC2CCN3CCC(OC1=O)C23 (stereo not drawn)
inactive: dose: 25.0 mg/kg/injection, schedule: Q01DX010 (ip), vehicle: saline 111 % of control | dose: 50.0 mg/kg/injection, schedule: Q01DX010 (ip), vehicle: saline 116 % of control | dose: 100.0 mg/kg/injection, schedule: Q01DX010 (ip), vehicle: saline 116 % of control

COc1ccc(C(=O)/C(Br)=C/C(=O)O)cc1
active: dose: 25.0 mg/kg/injection, schedule: Q01DX009 (ip), vehicle: water 150 % of control | dose: 100.0 mg/kg/injection, schedule: Q04DX002 (ip), vehicle: saline 150 % of control
inactive: dose: 6.3 mg/kg/injection, schedule: Q01DX009 (ip), vehicle: saline 106 % of control | dose: 12.5 mg/kg/injection, schedule: Q01DX009 (ip), vehicle: water 120 % of control | dose: 25.0 mg/kg/injection, schedule: Q04DX002 (ip), vehicle: saline 108 % of control and 109 % of control | dose: 50.0 mg/kg/injection, schedule: Q01DX009 (ip), vehicle: water 100 % of control | dose: 50.0 mg/kg/injection, schedule: Q04DX002 (ip), vehicle: saline 116 % of control and 118 % of control

COc1cc([N+](=O)[O-])c(/C=C2/c3cc(OC)c(OC)cc3CCN2C)cc1Br
inactive: dose: 100.0 mg/kg/injection, schedule: Q01DX009 (ip), vehicle: Klucel (hydroxypropylcellulose) (HPC) 109 % of control | [4] 100 % of control | dose: 200.0 mg/kg/injection, schedule: Q01DX009 (ip), vehicle: Klucel (hydroxypropylcellulose) (HPC) 90 % of control | [5] 100 % of control | dose: 400.0 mg/kg/injection, schedule: Q01DX009 (ip), vehicle: Klucel (hydroxypropylcellulose) (HPC) 104 % of control | [6] 100 % of control

CC(=O)c1cc(C)[nH]c1C
inactive: dose: 200.0 mg/kg/injection, schedule: Q04DX003 (ip), vehicle: saline sonified 115 % of control | dose: 400.0 mg/kg/injection, schedule: Q04DX003 (ip), vehicle: saline sonified 100 % of control

Cc1ccc(C(=O)N/N=C/C(=O)O)cc1
inactive: dose: 12.5 mg/kg/injection, schedule: Q04DX003 (ip), vehicle: Klucel (hydroxypropylcellulose) (HPC) 113 % of control | dose: 25.0 mg/kg/injection, schedule: Q04DX003 (ip), vehicle: Klucel (hydroxypropylcellulose) (HPC) 106 % of control | dose: 50.0 mg/kg/injection, schedule: Q04DX003 (ip), vehicle: Klucel (hydroxypropylcellulose) (HPC) 116 % of control | [4] 106 % of control | [5] 122 % of control

C=CC12COC(=O)C(=C)C1C(O)C(C(=C)C(=O)OC)C(O)C2 (stereo not drawn)
inactive: dose: 0.5 mg/kg/injection, schedule: Q01DX010 (ip), vehicle: steriod suspending solution 100 % of control | dose: 1.0 mg/kg/injection, schedule: Q01DX010 (ip), vehicle: steriod suspending solution 109 % of control | dose: 2.0 mg/kg/injection, schedule: Q01DX010 (ip), vehicle: steriod suspending solution 100 % of control | dose: 4.0 mg/kg/injection, schedule: Q01DX010 (ip), vehicle: steriod suspending solution 122 % of control | dose: 10.0 mg/kg/injection, schedule: Q01DX010 (ip), vehicle: steriod suspending solution 109 % of control

C=Cc1ccc(Oc2ccccc2)cc1
inactive: dose: 25.0 mg/kg/injection, schedule: Q01DX009 (ip), vehicle: saline 104 % of control | dose: 50.0 mg/kg/injection, schedule: Q01DX009 (ip), vehicle: saline 104 % of control | dose: 100.0 mg/kg/injection, schedule: Q01DX009 (ip), vehicle: saline 109 % of control

O=C(O)c1ccc(Cl)cc1Nc1ccc(Cl)cc1
inactive: dose: 25.0 mg/kg/injection, schedule: Q04DX003 (ip), vehicle: saline with Tween-80 120 % of control | [7] 100 % of control | [8] 100 % of control

[O-][n+]1c(CCl)nc2cccc3c2c1-c1ccccc1-3
inactive: dose: 12.5 mg/kg/injection, schedule: Q01DX009 (ip), vehicle: saline with Tween-80 106 % of control | [1] 111 % of control and 121 % of control (2×) | [2] 121 % of control | [3] 93 % of control
